ChEMBL document CHEMBL1201862, “PubChem BioAssay data set” (2004)
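Values below derive from 48-hour exposures of cells grown in 96-well plates, with endpoints linearly interpolated between the two concentrations bracketing the appropriate inhibition level. The concentration for 50% growth inhibition is given as GI50.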 Calls of active or inactive are those of the source. No stated cut-off is given here; in the data, active = GI50 up to about 1.1 µM and inactive = higher.

Legend:
Assay in all cases: inhibition of tumour cell growth, NCI panel, 48 h
786-0 = test system: 786-0
A498 = test system: A498
A549 = test system: A549
ACHN = test system: ACHN
CAKI-1 = test system: CAKI-1
CCRF-CEM = test system: CCRF-CEM
COLO 205 = test system: COLO 205
DU-145 = test system: DU-145
EKVX = test system: EKVX
HCC 2998 = test system: HCC 2998
HCT-116 = test system: HCT-116
HCT-15 = test system: HCT-15
HL-60 = test system: HL-60
HOP-62 = test system: HOP-62
HOP-92 = test system: HOP-92
HT-29 = test system: HT-29
Hs-578T = test system: Hs-578T
IGROV-1 = test system: IGROV-1
K562 = test system: K562
KM12 = test system: KM12
LOX IMVI = test system: LOX IMVI
M14 = test system: M14
MCF7 = test system: MCF7
MDA-MB-231 = test system: MDA-MB-231
MDA-MB-435 = test system: MDA-MB-435
MDA-N = test system: MDA-N
MOLT-4 = test system: MOLT-4
Malme-3M = test system: Malme-3M
NCI-H226 = test system: NCI-H226
NCI-H23 = test system: NCI-H23
NCI-H460 = test system: NCI-H460
NCI-H522 = test system: NCI-H522
NCI/ADR-RES = test system: NCI/ADR-RES
OVCAR-3 = test system: OVCAR-3
OVCAR-4 = test system: OVCAR-4
OVCAR-5 = test system: OVCAR-5
OVCAR-8 = test system: OVCAR-8
PC-3 = test system: PC-3
RPMI-8226 = test system: RPMI-8226
RXF 393 = test system: RXF 393
SF-268 = test system: SF-268
SF-295 = test system: SF-295
SF-539 = test system: SF-539
SK-MEL-28 = test system: SK-MEL-28
SK-MEL-2 = test system: SK-MEL-2
SK-MEL-5 = test system: SK-MEL-5
SK-OV-3 = test system: SK-OV-3
SN12C = test system: SN12C
SNB-19 = test system: SNB-19
SNB-75 = test system: SNB-75
SR = test system: SR
SW-620 = test system: SW-620
T47D = test system: T47D
U-251 = test system: U-251
UACC-257 = test system: UACC-257
UACC-62 = test system: UACC-62
UO-31 = test system: UO-31

Measured: GI50

C/C(=N\NC(=S)N1CCCCC1)c1cccc(C)n1
inactive: Hs-578T 22.3 µM | OVCAR-4 36.5 µM
active: 786-0 < 10 nM | A498 19.9 nM | A549 32.5 nM | ACHN < 12 nM | CAKI-1 < 10 nM | CCRF-CEM < 10.6 nM | COLO 205 < 10 nM | DU-145 153 nM | EKVX < 10 nM | HCC 2998 82 nM | HCT-116 < 10 nM | HL-60 < 10 nM | HOP-62 < 10 nM | HOP-92 169 nM | HT-29 < 10 nM | IGROV-1 < 10 nM | K562 < 10 nM | KM12 < 22.1 nM | LOX IMVI < 10 nM | M14 14.1 nM | MCF7 < 10 nM | MDA-MB-231 < 10 nM | MDA-MB-435 94.4 nM | MDA-N 87.1 nM | MOLT-4 < 10 nM | Malme-3M < 19.7 nM | NCI-H226 < 10 nM | NCI-H23 < 10 nM | NCI-H460 < 13.6 nM | NCI-H522 < 10 nM | NCI/ADR-RES < 10 nM | OVCAR-3 < 10 nM | OVCAR-5 149 nM | OVCAR-8 < 10 nM | PC-3 < 10 nM | RPMI-8226 < 10 nM | RXF 393 238 nM | SF-268 < 10.3 nM | SF-295 56 nM | SF-539 < 40.4 nM | SK-MEL-28 96.8 nM | SK-MEL-2 515 nM | SK-MEL-5 < 33.5 nM | SK-OV-3 < 14.6 nM | SN12C 10.8 nM | SNB-19 < 14.3 nM | SNB-75 196 nM | SR < 17.3 nM | SW-620 < 10 nM | T47D < 10 nM | U-251 < 10 nM | UACC-257 < 10 nM | UACC-62 31.8 nM | UO-31 41.4 nM
< 10 nM: HCT-15
